Measured values: patent publication US10544150B2, “NK-3 receptor selective antagonist compounds, pharmaceutical composition and methods for use in NK-3 receptors mediated disorders” (Ogeda SA, priority 2010, dated 2020)

Target: human NK-3 receptor (Homo sapiens (Human), UniProt P29371)
Assay: 3H-SB222200 binding competition assay with human NK-3 receptor
Details: 3H-SB222200 displacement, CHO cell membranes expressing human NK3 receptor; read-out: Ki range
Description: The affinity of compounds of the invention for the tachykinin receptors was determined by measuring the ability of the compounds of the invention to displace a radiolabeled ligand from its specifics binding site.
^3H-SB222200 Binding Competition Assay with Human NK-3 Receptor
The ability of the compounds of the invention to inhibit the binding of the NK-3 receptor selective antagonist SB222200 was assessed by an in vitro radioligand binding assay. Membranes were prepared from Chinese hamster ovary recombinant cells which express the human NK3 receptor. The membranes were incubated with 5 nM ^3H-SB222200_(ARC) in a HEPES 25 mM/NaCl 0.1M/CaCl2 1 mM/MgCl2 5 Mm/BSA 0.5%/Saponin 10 μg/ml buffer at pH 7.4 and various concentrations of the compounds of the invention. The amount of tritiated SB222200 bound to the receptor was determined after filtration by the quantification of membrane associated radioactivity using the TopCount-NXT reader (Packard). […] In Table 3 biological results obtained using the ^3H-SB222200 binding competition assay with compounds of the invention are set out in tabulated form. In this table the calculated Ki is given. The Ki value obtained (in accordance with the protocol set forth above) is represented as follows: “+++” means Ki<500 nM; “++” means 500 nM≤Ki≤1 μM; “+” means 1 μM<Ki≤5 μM; “#” means Ki>5 μM.

Chain of human NK-3 receptor (P29371 whole entry): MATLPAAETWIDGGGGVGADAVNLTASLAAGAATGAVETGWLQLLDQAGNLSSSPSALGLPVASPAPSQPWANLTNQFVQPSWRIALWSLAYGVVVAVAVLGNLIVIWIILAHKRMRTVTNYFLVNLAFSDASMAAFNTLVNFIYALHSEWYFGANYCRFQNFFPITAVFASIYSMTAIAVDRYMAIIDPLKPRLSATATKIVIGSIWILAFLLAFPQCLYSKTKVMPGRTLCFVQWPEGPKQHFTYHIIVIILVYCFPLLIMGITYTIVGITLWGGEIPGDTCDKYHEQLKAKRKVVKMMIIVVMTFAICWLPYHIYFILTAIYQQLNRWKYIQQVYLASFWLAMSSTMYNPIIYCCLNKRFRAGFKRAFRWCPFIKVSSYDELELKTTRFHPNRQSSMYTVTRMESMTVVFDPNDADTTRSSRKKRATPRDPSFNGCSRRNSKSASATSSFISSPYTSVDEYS

SMILES | Ki [µM]
O=C(c1ccc(F)cc1)N1CCn2c(nnc2-c2ccccn2)C1 [Compound 1, (4-fluorophenyl)(3-(pyridin-2-yl)-5,6-dihydro-[1,2,4]triazolo[4,3-a]pyrazin-7(8H)-yl)methanone] | 1 to 5
O=C(c1ccc(Cl)cc1)N1CCn2c(nnc2-c2ccccn2)C1 [Compound 2, (4-chlorophenyl)(3-(pyridin-2-yl)-5,6-dihydro-[1,2,4]triazolo[4,3-a]pyrazin-7(8H)-yl)methanone] | 1 to 5
O=C(c1cc(-c2ccc(Cl)cc2)n[nH]1)N1CCn2c(nnc2-c2ccccn2)C1 [Compound 3, (3-(4-chlorophenyl)-1H-pyrazol-5-yl)(3-(pyridin-2-yl)-5,6-dihydro-[1,2,4]triazolo[4,3-a]pyrazin-7(8H)-yl)methanone] | 1 to 5
O=C(c1cc(-c2ccc(Cl)c(Cl)c2)n[nH]1)N1CCn2c(nnc2-c2ccccn2)C1 [Compound 4, (3-(3,4-dichlorophenyl)-1H-pyrazol-5-yl)(3-(pyridin-2-yl)-5,6-dihydro-[1,2,4]triazolo[4,3-a]pyrazin-7(8H)-yl)methanone] | 1 to 5
O=C(c1ccc(Cl)c(Cl)c1)N1CCn2c(nnc2-c2ccccn2)C1 [Compound 5, (3,4-dichlorophenyl)(3-(pyridin-2-yl)-5,6-dihydro-[1,2,4]triazolo[4,3-a]pyrazin-7(8H)-yl)methanone] | 1 to 5
O=C(c1ccc(-c2ccccc2)cc1)N1CCn2c(nnc2-c2ccccn2)C1 [Compound 6, [1,1′-biphenyl]-4-yl(3-(pyridin-2-yl)-5,6-dihydro-[1,2,4]triazolo[4,3-a]pyrazin-7(8H)-yl)methanone] | 1 to 5
O=C(c1cc(-c2ccc(Cl)cc2Cl)n[nH]1)N1CCn2c(nnc2-c2ccccn2)C1 [Compound 13, (3-(2,4-dichlorophenyl)-1H-pyrazol-5-yl)(3-(pyridin-2-yl)-5,6-dihydro-[1,2,4]triazolo[4,3-a]pyrazin-7(8H)-yl)methanone] | 1 to 5
Cn1nc(-c2ccc(Cl)c(Cl)c2)cc1C(=O)N1CCn2c(nnc2-c2ccccn2)C1 [Compound 14, (3-(3,4-dichlorophenyl)-1-methyl-1H-pyrazol-5-yl)(3-(pyridin-2-yl)-5,6-dihydro-[1,2,4]triazolo[4,3-a]pyrazin-7(8H)-yl)methanone] | 1 to 5
O=C(c1ccc(F)cc1)N1CCn2c(nnc2-c2cc3ccccc3cn2)C1 [Compound 15, (4-fluorophenyl)(3-(isoquinolin-3-yl)-5,6-dihydro-[1,2,4]triazolo[4,3-a]pyrazin-7(8H)-yl)methanone] | 1 to 5
O=C(c1ccc(-c2ccc(F)cc2)cc1)N1CCn2c(nnc2-c2ccccn2)C1 [Compound 16, (4′-fluoro-[1,1′-biphenyl]-4-yl)(3-(pyridin-2-yl)-5,6-dihydro-[1,2,4]triazolo[4,3-a]pyrazin-7(8H)-yl)methanone] | 1 to 5
O=C(c1cc(-c2ccc(C(F)(F)F)cc2)n[nH]1)N1CCn2c(nnc2-c2ccccn2)C1 [Compound 17, (3-(pyridin-2-yl)-5,6-dihydro-[1,2,4]triazolo[4,3-a]pyrazin-7(8H)-yl)(3-(4-(trifluoromethyl)phenyl)-1H-pyrazol-5-yl)methanone] | 1 to 5
O=C(c1cc(-c2ccc(Oc3ccccc3)cc2)n[nH]1)N1CCn2c(nnc2-c2ccccn2)C1 [Compound 18, (3-(4-phenoxyphenyl)-1H-pyrazol-5-yl)(3-(pyridin-2-yl)-5,6-dihydro-[1,2,4]triazolo[4,3-a]pyrazin-7(8H)-yl)methanone] | 1 to 5
O=C(c1ccc(F)cc1)N1CCn2c(nnc2-c2ccc3cccc(F)c3n2)C1 [Compound 22, (4-fluorophenyl)(3-(8-fluoroquinolin-2-yl)-5,6-dihydro-[1,2,4]triazolo[4,3-a]pyrazin-7(8H)-yl)methanone] | 0.5 to 1
O=C(c1ccc(F)cc1)N1CCn2c(nnc2-c2ccc3cccc(Cl)c3n2)C1 [Compound 23, (3-(8-chloroquinolin-2-yl)-5,6-dihydro-[1,2,4]triazolo[4,3-a]pyrazin-7(8H)-yl)(4-fluorophenyl)methanone] | 0.5 to 1
O=C(c1ccc(F)cc1)N1CCn2c(nnc2-c2csc(-c3ccc(F)cc3)n2)C1 [Compound 32, (4-fluorophenyl)(3-(2-(4-fluorophenyl)thiazol-4-yl)-5,6-dihydro-[1,2,4]triazolo[4,3-a]pyrazin-7(8H)-yl)methanone] | < 0.5
O=C(c1ccc(F)cc1)N1CCn2c(nnc2-c2csc(N3CCCCC3)n2)C1 [Compound 33, (4-fluorophenyl)(3-(2-(piperidin-1-yl)thiazol-4-yl)-5,6-dihydro-[1,2,4]triazolo[4,3-a]pyrazin-7(8H)-yl)methanone] | < 0.5
O=C(c1ccc(F)cc1)N1CCn2c(nnc2-c2csc(N3CCN(c4ccccc4)CC3)n2)C1 [Compound 34, (4-fluorophenyl)(3-(2-(4-phenylpiperazin-1-yl)thiazol-4-yl)-5,6-dihydro-[1,2,4]triazolo[4,3-a]pyrazin-7(8H)-yl)methanone] | < 0.5
O=C(c1ccc(F)cc1)N1CCn2c(nnc2-c2cccc(N3CCCC3)n2)C1 [Compound 37, (4-fluorophenyl)(3-(6-(pyrrolidin-1-yl)pyridin-2-yl)-5,6-dihydro-[1,2,4]triazolo[4,3-a]pyrazin-7(8H)-yl)methanone] | < 0.5
O=C(c1ccc(F)cc1)N1CCn2c(nnc2-c2cccc(N3CCOCC3)n2)C1 [Compound 38, (4-fluorophenyl)(3-(6-morpholinopyridin-2-yl)-5,6-dihydro-[1,2,4]triazolo[4,3-a]pyrazin-7(8H)-yl)methanone] | < 0.5

More lines, now with the values ahead:

Ki [µM] | SMILES
< 0.5 | O=C(c1ccc(F)cc1)N1CCn2c(nnc2-c2ccc3ccccc3n2)C1 [Compound 7, (4-fluorophenyl)(3-(quinolin-2-yl)-5,6-dihydro-[1,2,4]triazolo[4,3-a]pyrazin-7(8H)-yl)methanone]
< 0.5 | O=C(c1ccc(F)cc1)N1CCn2c(nnc2-c2csc(-c3ccccc3)n2)C1 [Compound 8, (4-fluorophenyl)(3-(2-phenylthiazol-4-yl)-5,6-dihydro-[1,2,4]triazolo[4,3-a]pyrazin-7(8H)-yl)methanone]
< 0.5 | O=C(c1ccc(F)cc1)N1CCn2c(nnc2-c2csc(N3CCOCC3)n2)C1 [Compound 9, (4-fluorophenyl)(3-(2-morpholinothiazol-4-yl)-5,6-dihydro-[1,2,4]triazolo[4,3-a]pyrazin-7(8H)-yl)methanone]
< 0.5 | Cc1cccc(-c2nnc3n2CCN(C(=O)c2ccc(F)cc2)C3)n1 [Compound 11, (4-fluorophenyl)(3-(6-methylpyridin-2-yl)-5,6-dihydro-[1,2,4]triazolo[4,3-a]pyrazin-7(8H)-yl)methanone]
< 0.5 | O=C(c1ccc(-c2ccccc2)cc1)N1CCn2c(nnc2-c2ccc3ccccc3n2)C1 [Compound 19, [1,1′-biphenyl]-4-yl(3-(quinolin-2-yl)-5,6-dihydro-[1,2,4]triazolo[4,3-a]pyrazin-7(8H)-yl)methanone]
< 0.5 | O=C(c1ccc(-c2ccccc2)cc1)N1CCn2c(nnc2-c2csc(N3CCOCC3)n2)C1 [Compound 20, [1,1′-biphenyl]-4-yl(3-(2-morpholinothiazol-4-yl)-5,6-dihydro-[1,2,4]triazolo[4,3-a]pyrazin-7(8H)-yl)methanone]
< 0.5 | O=C(c1ccc(-c2cccs2)cc1)N1CCn2c(nnc2-c2ccccn2)C1 [Compound 21, (3-(pyridin-2-yl)-5,6-dihydro-[1,2,4]triazolo[4,3-a]pyrazin-7(8H)-yl)(4-(thiophen-2-yl)phenyl)methanone]
< 0.5 | O=C(c1ccc(F)cc1)N1CCn2c(nnc2-c2csc(-c3ccc(C(F)(F)F)cc3)n2)C1 [Compound 24, (4-fluorophenyl)(3-(2-(4-(trifluoromethyl)phenyl)thiazol-4-yl)-5,6-dihydro-[1,2,4]triazolo[4,3-a]pyrazin-7(8H)-yl)methanone]
< 0.5 | O=C(c1ccc(F)cc1)N1CCn2c(nnc2-c2cccc(-c3ccccc3)n2)C1 [Compound 25, (4-fluorophenyl)(3-(6-phenylpyridin-2-yl)-5,6-dihydro-[1,2,4]triazolo[4,3-a]pyrazin-7(8H)-yl)methanone]
< 0.5 | O=C(c1ccc(-c2ccccc2)cc1)N1CCn2c(nnc2-c2csc(-c3ccccc3)n2)C1 [Compound 26, [1,1′-biphenyl]-4-yl(3-(2-phenylthiazol-4-yl)-5,6-dihydro-[1,2,4]triazolo[4,3-a]pyrazin-7(8H)-yl)methanone]
< 0.5 | O=C(c1ccc(F)cc1)N1CCn2c(nnc2-c2nc3c(s2)CCCC3)C1 [Compound 27, (4-fluorophenyl)(3-(4,5,6,7-tetrahydrobenzo[d]thiazol-2-yl)-5,6-dihydro-[1,2,4]triazolo[4,3-a]pyrazin-7(8H)-yl)methanone]
< 0.5 | O=C(c1ccc(F)cc1)N1CCn2c(nnc2-c2csc(-c3cccc(C(F)(F)F)c3)n2)C1 [Compound 28, (4-fluorophenyl)(3-(2-(3-(trifluoromethyl)phenyl)thiazol-4-yl)-5,6-dihydro-[1,2,4]triazolo[4,3-a]pyrazin-7(8H)-yl)methanone]
< 0.5 | O=C(c1ccc(F)cc1)N1CCn2c(nnc2-c2csc(-c3ccc(F)cc3F)n2)C1 [Compound 29, (3-(2-(2,4-difluorophenyl)thiazol-4-yl)-5,6-dihydro-[1,2,4]triazolo[4,3-a]pyrazin-7(8H)-yl)(4-fluorophenyl)methanone]
